Results from US8852240B2, “Methods and compositions for fostering and preserving bone growth” (Kieran Murphy, LLC, priority 2004, dated 2014).
“Also recorded” adds a separate entry of the source.

Columns and labels:
[1] = tested on: marrow cavity of rat femur; assay: Calcein labeling of mid-shaft sections of rat femur after bone marrow ablation (BMX); type: in vivo; conditions: for protection of bone formed in the marrow cavity (calcein fluorescent signal): BMX + PTH 21 days, then anti-resorptive agent for the next 63 days (days 22-84), FIG. 7A
Method: FIG. 1A is a section of the mid-shaft of a rat femur following, respectively, 21 and 84 days of treatment. The groups include: (a) control—no bone marrow ablation (“BMX”) or anabolic agent, (b) BMX—bone marrow ablation alone; and (c) BMX+PTH−bone marrow ablation plus treatment for either 21 or 84 days with PTH 1-34 NH2. In addition, the rats were injected with calcein, a fluorescent dye, on 9, 8, 2 and 1 day prior to sacrificing the animals. Calcein becomes incorporated into bone and serves as a measure of bone growth and mineralization;
FIG. 6A illustrates the degree of persistent bone growth achieved after 84 days with the administration of a biocompatible material, in this instance Cementek (Cementek LV, Non-stoichiometric hydroxyapatite prepared from the reaction between the acid and base calcium phosphates in the presence of an aqueous solution. Teknimid, 65500 VIV en Biggore, France) or Pepgen-15 (a high purity anorganic bovine graft material, radiopaque, peptide-enhanced to mimic autogeneous bone. Dentsply Friadent CeraMed Lakewood, Colo.). All samples were taken from femurs which had BMX performed on them. The groups included: BMX followed by 84 days anabolic agent or PBS (buffer) presented in the first row or BMX followed by insertion of a slurry of biocompatible matrix (Cementek or Pepgen-15) with our without concomitant PTH treatment for 84 days;
FIGS. 7A and 7B illustrate the effect attributable to administration of the anti-resorption agent, Alendronate, in preserving bony tissue formed according to the method of the invention. The following treatment modalities are included: (a) BMX+PTH 1-34 NH2 for 21 days+PBS (buffer) during days 22-84; (b) BMX+PTH 1-34 NH2 for 21 days+calcitonin during days 22-84; (c) BMX+PTH 1-34 NH2 for 21 days+Alendronate during days 22-84; and (d) BMX+PTH 1-34 NH2 during days 1-84.

[2] = tested on: femoral shaft marrow cavity; assay: Micro-CT analysis of the femoral shaft marrow cavity after bone marrow ablation (BMX); type: in vivo, rat; conditions: for protection of bone formed in the marrow cavity (Micro-CT): BMX + PTH 21 days, then anti-resorptive drug for an additional 63 days, FIG. 7B
Description: FIG. 1B depicts the results from the same groups of animals using the imaging technique known as Micro-CT. This technique provides a high resolution analysis of the femoral shaft marrow cavity from the Control, BMX, and the BMX+PTH 1-34 NH2 of rats treated with PBS (buffer) or PTH for 21 or 84 days, respectively;
FIG. 6B depicts the results obtained from the same groups of animals reported in FIG. 6A using the Micro-CT imaging technique. This imaging technique provides a high resolution analysis of the femoral shaft marrow cavity from the BMX+PBS or PBX+PTH treatments, compared with femurs that had biocompatible materials (Cementek or Pepgen-15) injected into the bone marrow cavity following the step (e.g., ablation) resulting in the inducement of increased osteoblast activity; and
FIG. 7B depicts the results from the same groups of animals reported in FIG. 7A using the Micro-CT imaging technique, which provides a high resolution analysis of the femoral shaft marrow cavity.

| Compound | protection of bone formed in the marrow cavity (calcein fluorescent signal) [1] | protection of bone formed in the marrow cavity (Micro-CT) [2] | protection of bone formed in the marrow cavity (calcein fluorescent signal) ([1]; listed as Alendronate) | bone formation in femur mid-shaft (calcein) ([1]; BMX + PTH for 21 days, day 21, FIG. 1A) | bone / fluorescent label remaining in ablated marrow cavity (calcein) ([1]; BMX + PTH for 84 days, day 84, FIG. 1A / 7A) | bone formation in femurs receiving a biocompatible matrix material (calcein) ([1]; BMX + biocompatible matrix + PTH 84 days versus buffer (PBS), FIG. 6A) | bone in femoral shaft marrow cavity (Micro-CT) ([2]; BMX + PTH 1-34 NH2 + biocompatible material versus biocompatible material alone, 84 days, FIG. 6B) | newly formed bone in the marrow cavity (Micro-CT) ([2]; BMX + PTH for 21 days, day 21, FIG. 1B) | bone in marrow cavity of femur mid-shaft/diaphysis (Micro-CT) ([2]; BMX + PTH for 84 days, day 84, FIG. 1B / 7B) |
| --- | --- | --- | --- | --- | --- | --- | --- | --- | --- |
| calcitonin | protected; also recorded: protect the bone | protects the bone | – | – | – | – | – | – | – |
| NCCCC(O)(P(=O)(O)O)P(=O)(O)O [alendronate] | protect the bone | to a greater extent | greater protective effect | – | – | – | – | – | – |
| PTH 1-34 NH2 | – | – | – | leads to additional bone formation | resorption of a substantial portion of the bone that was present at day 21; also recorded: contains a minimum amount of fluorescent label; also recorded: no longer contains fluorescent labels | markedly greater than for buffer (PBS) alone | better results than the use of biocompatible material alone | further augmented | no longer contains substantial amounts of bone; also recorded: no longer contains radio-dense bone |
